From ChEMBL document CHEMBL3112450, “Synthesis and in vitro antitumor evaluation of primary amine substituted quinazoline linked benzimidazole” (Bioorg Med Chem Lett, 2014)

Key:
Assay type in all cases: functional
[1] = test system: OVCAR-8; assay: Cytotoxicity against human OVCAR8 cells assessed as cell growth at 10^-4 M after 48 hrs by SRB assay; conditions: OVCAR-8, 48 h, read-out: Activity
[2] = test system: NCI-H226; assay: Cytotoxicity against human NCI-H226 cells after 48 hrs by SRB assay; conditions: NCI-H226, 48 h
[3] = test system: T47D; assay: Cytotoxicity against human T47D cells assessed as cell growth at 10^-6 M after 48 hrs by SRB assay; conditions: read-out: Activity
[4] = test system: RPMI-8226; assay: Cytotoxicity against human RPMI8226 cells assessed as cell growth at 10^-8 M after 48 hrs by SRB assay; conditions: RPMI-8226, 48 h, read-out: Activity
[5] = test system: A498; assay: Cytotoxicity against human A498 cells assessed as cell growth at 10^-6 M after 48 hrs by SRB assay; conditions: A498, 48 h, read-out: Activity
[6] = Cytotoxicity against human OVCAR5 cells assessed as cell growth at 10^-4 M after 48 hrs by SRB assay; conditions: OVCAR-5, 48 h, read-out: Activity
[7] = test system: BT-549; assay: Cytotoxicity against human BT549 cells assessed as cell growth at 10^-4 M after 48 hrs by SRB assay; conditions: BT-549, 48 h, read-out: Activity
[8] = test system: NCI-H522; assay: Cytotoxicity against human NCI-H522 cells assessed as cell growth at 10^-8 M after 48 hrs by SRB assay; conditions: NCI-H522, 48 h, read-out: Activity
[9] = test system: SF-295; assay: Cytotoxicity against human SF295 cells after 48 hrs by SRB assay; conditions: SF-295, 48 h
[10] = test system: RXF 393; assay: Cytotoxicity against human RXF393 cells assessed as cell growth at 10^-6 M after 48 hrs by SRB assay; conditions: RXF 393, 48 h, read-out: Activity
[11] = test system: Malme-3M; assay: Cytotoxicity against human MALME-3M cells assessed as cell growth at 10^-8 M after 48 hrs by SRB assay; conditions: read-out: Activity
[12] = test system: SK-MEL-28; assay: Cytotoxicity against human SK-MEL-28 cells assessed as cell growth at 10^-4 M after 48 hrs by SRB assay; conditions: SK-MEL-28, 48 h, read-out: Activity
[13] = test system: CCRF-CEM; assay: Cytotoxicity against human CCRF-CEM cells assessed as cell growth at 10^-4 M after 48 hrs by SRB assay; conditions: read-out: Activity
[14] = test system: OVCAR-8; assay: Cytotoxicity against human OVCAR8 cells after 48 hrs by SRB assay; conditions: OVCAR-8, 48 h
[15] = test system: SK-MEL-5; assay: Cytotoxicity against human SK-MEL-5 cells assessed as cell growth at 10^-6 M after 48 hrs by SRB assay; conditions: SK-MEL-5, 48 h, read-out: Activity
[16] = test system: SK-MEL-5; assay: Cytotoxicity against human SK-MEL-5 cells assessed as cell growth at 10^-7 M after 48 hrs by SRB assay; conditions: SK-MEL-5, 48 h, read-out: Activity
[17] = test system: KM12; assay: Cytotoxicity against human KM12 cells assessed as cell growth at 10^-7 M after 48 hrs by SRB assay; conditions: KM12, 48 h, read-out: Activity
[18] = test system: UACC-62; assay: Cytotoxicity against human UACC62 cells assessed as cell growth at 10^-7 M after 48 hrs by SRB assay; conditions: UACC-62, 48 h, read-out: Activity
[19] = test system: MCF7; assay: Cytotoxicity against human MCF7 cells assessed as cell growth at 10^-8 M after 48 hrs by SRB assay; conditions: MCF7, 48 h, read-out: Activity
[20] = test system: SK-OV-3; assay: Cytotoxicity against human SKOV3 cells after 48 hrs by SRB assay; conditions: SK-OV-3, 48 h
[21] = test system: SK-OV-3; assay: Cytotoxicity against human SKOV3 cells assessed as cell growth at 10^-8 M after 48 hrs by SRB assay; conditions: SK-OV-3, 48 h, read-out: Activity
[22] = test system: LOX IMVI; assay: Cytotoxicity against human LOXIMVI cells assessed as cell growth at 10^-4 M after 48 hrs by SRB assay; conditions: read-out: Activity
[23] = test system: Malme-3M; assay: Cytotoxicity against human MALME-3M cells after 48 hrs by SRB assay
[24] = test system: TK-10; assay: Cytotoxicity against human TK10 cells assessed as cell growth at 10^-7 M after 48 hrs by SRB assay; conditions: TK-10, 48 h, read-out: Activity
[25] = test system: HOP-62; assay: Cytotoxicity against human HOP62 cells assessed as cell growth at 10^-7 M after 48 hrs by SRB assay; conditions: HOP-62, 48 h, read-out: Activity
[26] = test system: IGROV-1; assay: Cytotoxicity against human IGROV1 cells assessed as cell growth at 10^-7 M after 48 hrs by SRB assay; conditions: IGROV-1, 48 h, read-out: Activity
[27] = test system: HL-60(TB); assay: Cytotoxicity against human HL-60(TB) cells assessed as cell growth at 10^-4 M after 48 hrs by SRB assay; conditions: HL-60, 48 h, read-out: Activity
[28] = test system: IGROV-1; assay: Cytotoxicity against human IGROV1 cells assessed as cell growth at 10^-6 M after 48 hrs by SRB assay; conditions: IGROV-1, 48 h, read-out: Activity
[29] = test system: SNB-19; assay: Cytotoxicity against human SNB19 cells assessed as cell growth at 10^-4 M after 48 hrs by SRB assay; conditions: SNB-19, 48 h, read-out: Activity
[30] = Cytotoxicity against human NCI-ADR-RES cells assessed as cell growth at 10^-8 M after 48 hrs by SRB assay; conditions: read-out: Activity
[31] = test system: MDA-MB-435; assay: Cytotoxicity against human MDA-MB-435 cells assessed as cell growth at 10^-8 M after 48 hrs by SRB assay; conditions: MDA-MB-435, 48 h, read-out: Activity
[32] = test system: HCT-116; assay: Cytotoxicity against human HCT116 cells after 48 hrs by SRB assay; conditions: HCT-116, 48 h
[33] = test system: HCT-15; assay: Cytotoxicity against human HCT15 cells assessed as cell growth at 10^-7 M after 48 hrs by SRB assay; conditions: HCT-15, 48 h, read-out: Activity
[34] = Cytotoxicity against human UO31 cells assessed as cell growth at 10^-6 M after 48 hrs by SRB assay; conditions: UO-31, 48 h, read-out: Activity
[35] = test system: U-251; assay: Cytotoxicity against human U251 cells assessed as cell growth at 10^-6 M after 48 hrs by SRB assay; conditions: U-251, 48 h, read-out: Activity
[36] = test system: MCF7; assay: Cytotoxicity against human MCF7 cells assessed as cell growth at 10^-7 M after 48 hrs by SRB assay; conditions: MCF7, 48 h, read-out: Activity
[37] = test system: HCT-15; assay: Cytotoxicity against human HCT15 cells assessed as cell growth at 10^-8 M after 48 hrs by SRB assay; conditions: HCT-15, 48 h, read-out: Activity
[38] = Cytotoxicity against human NCI-ADR-RES cells assessed as cell growth at 10^-4 M after 48 hrs by SRB assay; conditions: read-out: Activity
[39] = Cytotoxicity against human Hs578T cells assessed as cell growth at 10^-7 M after 48 hrs by SRB assay; conditions: Hs-578T, read-out: Activity

C=CCn1c(C)nc2ccc(Nc3nc(Nc4ccc(F)cc4)nc4ccccc34)cc21
growth at 100 µM [1]: -26%
GI50 [2]: 1.78 µM
TGI [2]: 3.85 µM
growth at 1 µM [3]: 79%
growth at 0.01 µM [4]: 106%
growth at 1 µM [5]: 65%
growth at 100 µM [6]: -80%
growth at 100 µM [7]: -61%
growth at 0.01 µM [8]: 89%
GI50 [9]: 6.08 µM
LC50 [9]: 51 µM
TGI [9]: 20.3 µM
growth at 1 µM [10]: 64%
growth at 0.01 µM [11]: 97%
growth at 100 µM [12]: -50%
growth at 100 µM [13]: -23%
GI50 [14]: 3.05 µM
LC50 [14]: > 100 µM
TGI [14]: 13.6 µM
growth at 1 µM [15]: 73%
growth at 0.1 µM [16]: 93%
growth at 0.1 µM [17]: 94%
growth at 0.1 µM [18]: 95%
growth at 0.01 µM [19]: 91%
GI50 [20]: 1.93 µM
TGI [20]: 3.74 µM
growth at 0.01 µM [21]: 96%
growth at 100 µM [22]: -42%
GI50 [23]: 13.1 µM
LC50 [23]: 97.3 µM
TGI [23]: 35.7 µM
growth at 0.1 µM [24]: 104%
growth at 0.1 µM [25]: 100%
growth at 0.1 µM [26]: 94%
growth at 100 µM [27]: -45%
growth at 1 µM [28]: 91%
growth at 100 µM [29]: -80%
growth at 0.01 µM [30]: 100%
growth at 0.01 µM [31]: 97%
GI50 [32]: 2.41 µM
LC50 (concentration killing 50% of cells) [32]: 39.1 µM
TGI [32]: 7.67 µM
growth at 0.1 µM [33]: 101%
growth at 1 µM [34]: 83%
growth at 1 µM [35]: 83%
growth at 0.1 µM [36]: 87%
growth at 0.01 µM [37]: 99%
growth at 100 µM [38]: -15%
growth at 0.1 µM [39]: 99%

C=CCn1c(C)nc2ccc(Nc3nc(Nc4ccc5nc(C)n(CC=C)c5c4)c4ccccc4n3)cc21
growth at 100 µM [1]: -18%
GI50 [2]: 1.75 µM
TGI [2]: 3.31 µM
growth at 1 µM [3]: 80%
growth at 0.01 µM [4]: 99%
growth at 1 µM [5]: 42%
growth at 100 µM [6]: -75%
growth at 100 µM [7]: -32%
growth at 0.01 µM [8]: 97%
GI50 [9]: 1.84 µM
TGI [9]: 3.53 µM
growth at 1 µM [10]: 99%
growth at 0.01 µM [11]: 91%
growth at 100 µM [12]: -39%
growth at 100 µM [13]: 2%
GI50 [14]: 1.56 µM
TGI [14]: 3.25 µM
growth at 1 µM [15]: 91%
growth at 0.1 µM [16]: 94%
growth at 0.1 µM [17]: 92%
growth at 0.1 µM [18]: 94%
growth at 0.01 µM [19]: 92%
GI50 [20]: 1.72 µM
LC50 (concentration killing 50% of cells) [20]: 5.56 µM
TGI [20]: 3.09 µM
growth at 0.01 µM [21]: 97%
growth at 100 µM [22]: 7%
GI50 [23]: 1.9 µM
TGI [23]: 3.68 µM
growth at 0.1 µM [24]: 99%
growth at 0.1 µM [25]: 96%
growth at 0.1 µM [26]: 101%
growth at 100 µM [27]: -32%
growth at 1 µM [28]: 99%
growth at 100 µM [29]: -34%
growth at 0.01 µM [30]: 99%
growth at 0.01 µM [31]: 100%
GI50 [32]: 1.37 µM
growth at 0.1 µM [33]: 91%
growth at 1 µM [34]: 71%
growth at 1 µM [35]: 89%
growth at 0.1 µM [36]: 91%
growth at 0.01 µM [37]: 96%
growth at 100 µM [38]: -18%
growth at 0.1 µM [39]: 96%

C=CCn1c(C)nc2cc(Nc3nc(Nc4ccc5nc(C)n(CC=C)c5c4)c4ccccc4n3)ccc21
growth at 100 µM [1]: 1%
GI50 [2]: 2.03 µM
LC50 [2]: > 100 µM
TGI [2]: 5.04 µM
growth at 1 µM [3]: -4%
growth at 0.01 µM [4]: 100%
growth at 1 µM [5]: 93%
growth at 100 µM [6]: -44%
growth at 100 µM [7]: -46%
growth at 0.01 µM [8]: 97%
GI50 [9]: 1.44 µM
LC50 [9]: 5.24 µM
TGI [9]: 2.75 µM
growth at 1 µM [10]: 22%
growth at 0.01 µM [11]: 95%
growth at 100 µM [12]: -48%
growth at 100 µM [13]: -19%
GI50 [14]: 0.284 µM
LC50 [14]: > 100 µM
growth at 1 µM [15]: 78%
growth at 0.1 µM [16]: 94%
growth at 0.1 µM [17]: 98%
growth at 0.1 µM [18]: 98%
growth at 0.01 µM [19]: 101%
GI50 [20]: 1.9 µM
TGI [20]: 3.77 µM
growth at 0.01 µM [21]: 95%
growth at 100 µM [22]: -71%
GI50 [23]: 2.27 µM
TGI [23]: 4.1 µM
growth at 0.1 µM [24]: 100%
growth at 0.1 µM [25]: 99%
growth at 0.1 µM [26]: 106%
growth at 100 µM [27]: -28%
growth at 1 µM [28]: 82%
growth at 100 µM [29]: -35%
growth at 0.01 µM [30]: 103%
growth at 0.01 µM [31]: 97%
GI50 [32]: 0.214 µM
growth at 0.1 µM [33]: 96%
growth at 1 µM [34]: 72%
growth at 1 µM [35]: -88%
growth at 0.1 µM [36]: 103%
growth at 0.01 µM [37]: 101%
growth at 100 µM [38]: -24%
growth at 0.1 µM [39]: 96%
